According to ChEMBL document CHEMBL3351682, “NaSH in the construction of thiophene ring fused with N-heterocycles: a rapid and inexpensive synthesis of novel small molecules as potential inducers of apoptosis” (Bioorg Med Chem Lett, 2014):
Active and inactive are the calls of the source. The calls are words filed in the database; no cut-off is given here.

What was measured:
Danio rerio [1] = organism: Danio rerio; assay: Induction of apoptosis in zebrafish embryo at 30 uM after 24 to 48 hrs by acridine orange staining based fluorescence microscopy; type: functional, organism-based
Danio rerio [2] = organism: Danio rerio; assay: Induction of apoptosis in zebrafish embryo at 1 to 3 uM after 24 to 48 hrs by acridine orange staining based fluorescence microscopy; type: functional, organism-based
Danio rerio [3] = organism: Danio rerio; assay: Teratogenicity in zebrafish embryo at 30 uM incubated until 5 days post fertilization; type: ADME, organism-based; conditions: in vivo, 120 h
Danio rerio [4] = organism: Danio rerio; assay: Hepatotoxicity in zebrafish embryo at 1 to 30 uM incubated until 7 days post fertilization; type: organism-based; conditions: in vivo, 168 h
Danio rerio [5] = organism: Danio rerio; assay: Induction of apoptosis in zebrafish embryo after 24 to 48 hrs by acridine orange staining based fluorescence microscopy; type: functional, organism-based
Danio rerio [6] = organism: Danio rerio; assay: Teratogenicity in zebrafish embryo incubated until 5 days post fertilization; type: ADME, organism-based; conditions: in vivo, 120 h
Danio rerio [7] = organism: Danio rerio; assay: Hepatotoxicity in zebrafish embryo incubated until 7 days post fertilization; type: organism-based; conditions: in vivo, 168 h
[8] = Therapeutic index, ratio of NOAEL to apoptotic EC50 in Zebrafish embryo; type: organism-based, Danio rerio; conditions: in vivo, read-out: TI
Danio rerio [9] = organism: Danio rerio; assay: Induction of apoptosis in zebrafish embryo at 1 to 30 uM after 24 to 48 hrs by acridine orange staining based fluorescence microscopy; type: functional, organism-based
Danio rerio [10] = organism: Danio rerio; assay: Teratogenicity in zebrafish embryo at 1 to 30 uM incubated until 5 days post fertilization; type: ADME, organism-based; conditions: in vivo, 120 h
Danio rerio [11] = organism: Danio rerio; assay: Teratogenicity in zebrafish embryo at 10 uM incubated until 5 days post fertilization; type: ADME, organism-based; conditions: in vivo, 120 h
Danio rerio [12] = organism: Danio rerio; assay: Hepatotoxicity in zebrafish embryo at 10 uM incubated until 7 days post fertilization; type: organism-based; conditions: in vivo, 168 h
Danio rerio [13] = organism: Danio rerio; assay: Hepatotoxicity in zebrafish embryo assessed as induction of mortality at 30 uM incubated until 7 days post fertilization; type: organism-based; conditions: in vivo, 168 h

SMILES | Activity (Danio rerio [1]) | Activity (Danio rerio [2]) | Activity (Danio rerio [3]) | Activity (Danio rerio [4]) | EC50 (Danio rerio [5]) [µM] | NOAEL (Danio rerio [6]) [µM] | NOAEL (Danio rerio [7]) [µM] | selectivity ratio [8] | Activity (Danio rerio [9]) | Activity (Danio rerio [10]) | Activity (Danio rerio [11]) | Activity (Danio rerio [12]) | Activity (Danio rerio [13])
c1ccc(-c2cc3nc4ccccc4nc3s2)cc1 | Active | Active | Toxic | Non-toxic | 8.5 | 10 | 10 | 1.17 |  |  |  |  | 
CCCc1cc2nc3ccccc3nc2s1 | Active |  |  | Non-toxic | 4.46 | 30 | 30 | 6.72 | Dose-dependent effect | Non-toxic |  |  | 
Fc1cc(F)cc(-c2cc3nccnc3s2)c1 | Active |  |  | Non-toxic | 9.82 | 30 | 30 | 3.05 |  | Non-toxic |  |  | 
CC(C)(C)c1cc2nc3ccccc3nc2s1 | Active |  | Toxic |  | 4.89 | 3 | 1 | 0.2 | Dose-dependent effect |  | Non-toxic | Toxic | Toxic
Fc1cc(F)cc(-c2cc3nc4ccccc4nc3s2)c1 | Active |  |  | Non-toxic | 10.3 | 30 | 30 | 2.9 |  | Non-toxic |  |  | 
